Results taken from patent US6423749B1, “Pharmaceutical composition for injection based on paracetamol” (Aziende Chimiche Riunite Angelini Francesco A.C.R.A.F. …, priority 1998, dated 2002).

Assays:
[1] = cited from earlier work
[2] = Solubility of paracetamol, HPLC analysis of supernatant after centrifugation; format: physicochemical; conditions: stirred 2 hours at room temperature
Experimental: The PEG400 was added to the paracetamol at room temperature. This mixture was then kept stirring at room temperature for 2 hours.
4 ml of the above-mentioned suspension were centrifuged in an Eppendorf tube at 25° C. for 30 minutes at a speed of 7,000 rpm.
The absolute ethanol was added to the paracetamol at room temperature. This mixture was then kept stirring at room temperature for 2 hours.
4 ml of the above-mentioned suspension were centrifuged in an Eppendorf tube at 4° C. for 40 minutes at a speed of 7,000 rpm.

## CC(=O)Nc1ccc(O)cc1 [paracetamol]
[1]; 30% propylene glycol, 40% PEG400 and 30% water, 20° C., WO 98/05314
  amount of paracetamol dissolved: about 200 mg/ml
[1]; water, The Merck Index, 12th edition
  solubility in water: very slightly soluble
[2]; in PEG-400, centrifuged at 25° C. for 30 minutes
  solubility of the paracetamol: 18-19%
[2]; in absolute ethanol, centrifuged at 4° C. for 40 minutes
  solubility of the paracetamol: 9-10%
